“And” between values parts separate entries of the source, which are not always exact repeats. Equal values may be shown once. ± gives the expanded uncertainty stated by the source.
Test: xn = mol fraction of the nth substance listed
Conditions: Fluid (supercritical or subcritical phases), quasistatic thermogram and barogram, x2 = 0.7393

For N [ammonia] + O, the thermal pressure coefficient (594.84 K, Mass density=120.03 kg/m3) was 91 ± 3 kPa/K, the thermal pressure coefficient (594.84 K, Mass density=147.43 kg/m3) was 126 ± 4 kPa/K and the thermal pressure coefficient (595.16 K, Mass density=376.89 kg/m3) was 205 kPa/K and 295 kPa/K. It also gave a thermal pressure coefficient (595.35 K, Mass density=147.43 kg/m3) of 124 ± 4 kPa/K, a thermal pressure coefficient (595.35 K, Mass density=456.58 kg/m3) of 451 ± 2 kPa/K and a thermal pressure coefficient (595.53 K, Mass density=342.18 kg/m3) of 199 ± 1 kPa/K. It also gave a thermal pressure coefficient (595.61 K, Mass density=285.71 kg/m3) of 196 ± 6 kPa/K, a thermal pressure coefficient (595.78 K, Mass density=309.95 kg/m3) of 200 ± 6 kPa/K and a thermal pressure coefficient (595.78 K, Mass density=376.89 kg/m3) of 296 ± 2 kPa/K. It also gave a thermal pressure coefficient (596.04 K, Mass density=160.07 kg/m3) of 183 ± 6 kPa/K, a thermal pressure coefficient (596.04 K, Mass density=227.54 kg/m3) of 195 ± 6 kPa/K and a thermal pressure coefficient (596.47 K, Mass density=308.35 kg/m3) of 205 ± 6 kPa/K. For the same compound, the thermal pressure coefficient (596.73 K, Mass density=307.35 kg/m3) was 201 ± 6 kPa/K, the thermal pressure coefficient (596.9 K, Mass density=271.09 kg/m3) was 199 ± 6 kPa/K and the thermal pressure coefficient (597.08 K, Mass density=342.18 kg/m3) was 198 ± 1 kPa/K. It also gave a thermal pressure coefficient (597.33 K, Mass density=160.07 kg/m3) of 151 ± 5 kPa/K, a thermal pressure coefficient (597.33 K, Mass density=311.19 kg/m3) of 199 ± 6 kPa/K and a thermal pressure coefficient (597.33 K, Mass density=376.89 kg/m3) of 306 ± 2 kPa/K. For the same compound, the thermal pressure coefficient (597.35 K, Mass density=160.07 kg/m3) was 174 kPa/K and 147 kPa/K, the thermal pressure coefficient (597.42 K, Mass density=295.31 kg/m3) was 196 ± 6 kPa/K and the thermal pressure coefficient (597.5 K, Mass density=188.05 kg/m3) was 187 ± 6 kPa/K. The thermal pressure coefficient (597.56 K, Mass density=342.18 kg/m3) was 197 kPa/K and 261 kPa/K, the thermal pressure coefficient (597.59 K, Mass density=218.92 kg/m3) was 197 ± 6 kPa/K and the thermal pressure coefficient (597.76 K, Mass density=292.97 kg/m3) was 199 ± 6 kPa/K. For the same compound, the thermal pressure coefficient (598.19 K, Mass density=224.53 kg/m3) was 198 ± 6 kPa/K, the thermal pressure coefficient (598.28 K, Mass density=376.89 kg/m3) was 311 ± 1 kPa/K and the thermal pressure coefficient (598.33 K, Mass density=329 kg/m3) was 195 kPa/K and 249 kPa/K. The thermal pressure coefficient (598.36 K, Mass density=160.07 kg/m3) was 140 ± 4 kPa/K, the thermal pressure coefficient (598.45 K, Mass density=320.33 kg/m3) was 197 ± 6 kPa/K and the thermal pressure coefficient (598.54 K, Mass density=297.6 kg/m3) was 191 ± 6 kPa/K. It also gave a thermal pressure coefficient (598.57 K, Mass density=301.94 kg/m3) of 199 ± 6 kPa/K, a thermal pressure coefficient (598.63 K, Mass density=291.16 kg/m3) of 201 ± 6 kPa/K and a thermal pressure coefficient (598.71 K, Mass density=297.6 kg/m3) of 192 ± 6 kPa/K. For the same compound, the thermal pressure coefficient (598.96 K, Mass density=243.97 kg/m3) was 201 ± 6 kPa/K, the thermal pressure coefficient (598.96 K, Mass density=320.33 kg/m3) was 192 kPa/K and 246 kPa/K and the thermal pressure coefficient (598.97 K, Mass density=376.89 kg/m3) was 311 ± 1 kPa/K. For the same compound, the thermal pressure coefficient (599.05 K, Mass density=160.07 kg/m3) was 139 ± 4 kPa/K, the thermal pressure coefficient (599.05 K, Mass density=299.79 kg/m3) was 192 ± 6 kPa/K and the thermal pressure coefficient (599.05 K, Mass density=329 kg/m3) was 258 ± 9 kPa/K. For the same compound, the thermal pressure coefficient (599.14 K, Mass density=160.07 kg/m3) was 137 ± 4 kPa/K, the thermal pressure coefficient (599.22 K, Mass density=214.43 kg/m3) was 201 ± 6 kPa/K and the thermal pressure coefficient (599.42 K, Mass density=312.91 kg/m3) was 192 kPa/K and 244 kPa/K. For the same compound, the thermal pressure coefficient (599.44 K, Mass density=320.33 kg/m3) was 250 ± 8 kPa/K, the thermal pressure coefficient (599.52 K, Mass density=206.01 kg/m3) was 198 ± 6 kPa/K and the thermal pressure coefficient (599.57 K, Mass density=311.19 kg/m3) was 193 kPa/K and 240 kPa/K. The thermal pressure coefficient (599.57 K, Mass density=456.58 kg/m3) was 456 ± 2 kPa/K, the thermal pressure coefficient (599.67 K, Mass density=309.95 kg/m3) was 192 kPa/K and 236 kPa/K and the thermal pressure coefficient (599.78 K, Mass density=308.35 kg/m3) was 192 kPa/K and 234 kPa/K. For the same compound, the thermal pressure coefficient (599.89 K, Mass density=307.35 kg/m3) was 192 kPa/K and 231 kPa/K, the thermal pressure coefficient (599.91 K, Mass density=295.31 kg/m3) was 196 ± 6 kPa/K and the thermal pressure coefficient (600.02 K, Mass density=305.44 kg/m3) was 192 kPa/K and 229 kPa/K. For the same compound, the thermal pressure coefficient (600.17 K, Mass density=195.99 kg/m3) was 195 ± 6 kPa/K, the thermal pressure coefficient (600.17 K, Mass density=303.47 kg/m3) was 192 kPa/K and 229 kPa/K and the thermal pressure coefficient (600.29 K, Mass density=301.94 kg/m3) was 192 kPa/K and 228 kPa/K. The thermal pressure coefficient (600.48 K, Mass density=299.79 kg/m3) was 193 kPa/K and 226 kPa/K, the thermal pressure coefficient (600.59 K, Mass density=309.95 kg/m3) was 248 ± 9 kPa/K and the thermal pressure coefficient (600.63 K, Mass density=297.6 kg/m3) was 193 kPa/K and 225 kPa/K. The thermal pressure coefficient (600.68 K, Mass density=230.31 kg/m3) was 200 ± 6 kPa/K, the thermal pressure coefficient (600.77 K, Mass density=308.35 kg/m3) was 240 ± 8 kPa/K and the thermal pressure coefficient (600.81 K, Mass density=295.31 kg/m3) was 193 kPa/K and 224 kPa/K. The thermal pressure coefficient (600.93 K, Mass density=292.97 kg/m3) was 194 kPa/K and 224 kPa/K, the thermal pressure coefficient (600.94 K, Mass density=260.02 kg/m3) was 193 ± 6 kPa/K and the thermal pressure coefficient (600.94 K, Mass density=305.44 kg/m3) was 237 ± 7 kPa/K. The thermal pressure coefficient (601.02 K, Mass density=291.16 kg/m3) was 192 ± 6 kPa/K, the thermal pressure coefficient (601.02 K, Mass density=342.18 kg/m3) was 281 ± 1 kPa/K and the thermal pressure coefficient (601.05 K, Mass density=291.16 kg/m3) was 193 kPa/K and 223 kPa/K.
